Experimental data as given in US11465965B2, “Double-headed protease inhibitor” (UBE INDUSTRIES, LTD., priority 2017, dated 2022).
Where a name gives a salt, the structure may show the parent alone.

Experiments:
DIO mouse = test: Anti-obesity effect test using DIO mouse; format: in vivo; conditions: 336 h, DIO mice, vs vehicle group, read-out: Weight loss rate; for inhibition in vivo at 50 mg/kg: oral 50 mg/kg once daily for 2 weeks
Method: (Test Example 4): Anti-Obesity Effect Test Using DIO Mouse
Diet-induced obesity (DIO) mice (D-12492 diet, male, C57BL-DIO, 26 to 28-week old) were orally administered with a 0.5 W/V % methylcellulose suspension comprising each test compound (Compound administration group, 5 or 6 mice/group) or a 0.5 W/V % methylcellulose suspension (Compound non-administration group (Vehicle group), 6 mice/group) once daily for 2 weeks. Weight loss rate was calculated by the following equation. Weight loss rate (%) of each Compound administration group−(1−average weight at the last day of the test of each Compound administration group/average weight at the last day of the test of Vehicle group)×100

[1] = Rat pharmacokinetic (PK) test (plasma concentration after oral administration); conditions: male, SD
[2] = target: T1, Human recombinant enteropeptidase (Homo sapiens, UniProt P98073); test: Human enteropeptidase inhibition test; format: biochemical; conditions: 20 minutes after reaction start, read-out: Inhibition rate (enteropeptidase); for inhibition at 0.01 µM: compound concentration 10 nM; for inhibition at 0.1 µM: compound concentration 100 nM; for inhibition at 0.001 µM: compound concentration 1 nM
T1 construct: purchased BIO Vision Inc. 7529-50
Method: (Test Example 1): Human Enteropeptidase Inhibition Test
Human recombinant enteropeptidase (manufactured by BIO Vision Inc., catalog no.: 7529-50) was diluted with an assay buffer (50 mM tricine (pH8.0), 0.01 W/V % Tween 20, 10 mM CaCl2) to prepare an […] enzyme solution. Then, 5FAM-Abu-Gly-Asp-Asp-Lys-Ile-Val-Gly-Gly-Lys (CPQ2)-Lys-Lys-NH2 (manufactured by CHINESE PEPTIDE COMPANY, purity: 94.5) was diluted with the assay buffer to prepare a 1.5 μM substrate solution. Each test compound was dissolved into DMSO, then diluted with the assay buffer 100 times, and further appropriately diluted with an assay buffer comprising 1% DMSO to prepare each compound solution. 10 μL of the compound solution, 15 μL of the assay buffer, and 50 μL of the substrate solution were added to a 96 well black plate (manufactured by Thermo Fisher Scientific Inc., code no.: 9502867), mixed, then 25 μL of the enzyme solution was added thereto, and mixed to start the reaction. Fluorescence intensities at excitation wavelength 485 nm and fluorescence wavelength 535 nm were measured by using a fluorescence plate reader (Flex station 3) (Test compound addition group). Also, the same reaction as described above except for not adding each test compound was carried out (Test compound non-addition group). Additionally, the same reaction as described above except for not adding each test compound and the enzyme was carried out (Control group). Inhibition rate was calculated by the following equation using fluorescence intensity after 20 minutes of reaction start. Inhibition rate (%)=(1−(fluorescence intensity of Test compound addition group−fluorescence intensity of Control group)÷(fluorescence intensity of Test compound non-addition group−fluorescence intensity of Control group))×100

[3] = target: T2, Human recombinant trypsin (Homo sapiens, UniProt P07477); test: Human trypsin inhibition test; format: biochemical; conditions: 20 minutes after reaction start, read-out: Inhibition rate (trypsin); for inhibition at 0.01 µM: compound concentration 10 nM; for inhibition at 0.1 µM: compound concentration 100 nM; for inhibition at 0.001 µM: compound concentration 1 nM
T2 construct: purchased Wako Pure Chemical Industries, Ltd. 206-17171
Method: (Test Example 2): Human Trypsin Inhibition Test
Human recombinant trypsin (manufactured by Wako Pure Chemical Industries, Ltd., code no.: 206-17171) was diluted with an assay buffer (0.1 M Tris-HCl (pH8.0), 0.15 M NaCl, 10 mM CaCl2, 0.05% Brij35) to prepare a 10 ng/mL enzyme solution. Then, Boc-Phe-Ser-Arg-MCA (manufactured by PEPTIDE INSTITUTE, INC., code no.: 3107-v) was diluted with the assay buffer to prepare a 40 μM substrate solution. Each test compound was dissolved into DMSO, then diluted with the assay buffer 100 times, and further appropriately diluted with an assay buffer comprising 1% DMSO to prepare each compound solution. 10 μL of the compound solution, 15 μL of the assay buffer, and 50 μL of the substrate solution were added to a 96 well black plate (manufactured by Thermo Fisher Scientific Inc., code no.: 9502867), mixed, and then 25 μL of the enzyme solution was added thereto, and mixed to start the reaction. Fluorescence intensities at excitation wavelength 355 nm and fluorescence wavelength of 460 nm were measured by using a fluorescence plate reader (Flex station 3) (Test compound addition group). Also, the same reaction as described above except for not adding each test compound was carried out (Test compound non-addition group). Additionally, the same reaction as described above except for not adding each test compound and the enzyme was carried out (Control group). Inhibition rate was calculated by the following equation using fluorescence intensity after 20 minutes of reaction start. Inhibition rate (%)=(1−(fluorescence intensity of Test compound addition group−fluorescence intensity of Control group)[…](fluorescence intensity of Test compound non-addition group−fluorescence intensity of Control group))×100

T1 sequence (P98073 whole entry): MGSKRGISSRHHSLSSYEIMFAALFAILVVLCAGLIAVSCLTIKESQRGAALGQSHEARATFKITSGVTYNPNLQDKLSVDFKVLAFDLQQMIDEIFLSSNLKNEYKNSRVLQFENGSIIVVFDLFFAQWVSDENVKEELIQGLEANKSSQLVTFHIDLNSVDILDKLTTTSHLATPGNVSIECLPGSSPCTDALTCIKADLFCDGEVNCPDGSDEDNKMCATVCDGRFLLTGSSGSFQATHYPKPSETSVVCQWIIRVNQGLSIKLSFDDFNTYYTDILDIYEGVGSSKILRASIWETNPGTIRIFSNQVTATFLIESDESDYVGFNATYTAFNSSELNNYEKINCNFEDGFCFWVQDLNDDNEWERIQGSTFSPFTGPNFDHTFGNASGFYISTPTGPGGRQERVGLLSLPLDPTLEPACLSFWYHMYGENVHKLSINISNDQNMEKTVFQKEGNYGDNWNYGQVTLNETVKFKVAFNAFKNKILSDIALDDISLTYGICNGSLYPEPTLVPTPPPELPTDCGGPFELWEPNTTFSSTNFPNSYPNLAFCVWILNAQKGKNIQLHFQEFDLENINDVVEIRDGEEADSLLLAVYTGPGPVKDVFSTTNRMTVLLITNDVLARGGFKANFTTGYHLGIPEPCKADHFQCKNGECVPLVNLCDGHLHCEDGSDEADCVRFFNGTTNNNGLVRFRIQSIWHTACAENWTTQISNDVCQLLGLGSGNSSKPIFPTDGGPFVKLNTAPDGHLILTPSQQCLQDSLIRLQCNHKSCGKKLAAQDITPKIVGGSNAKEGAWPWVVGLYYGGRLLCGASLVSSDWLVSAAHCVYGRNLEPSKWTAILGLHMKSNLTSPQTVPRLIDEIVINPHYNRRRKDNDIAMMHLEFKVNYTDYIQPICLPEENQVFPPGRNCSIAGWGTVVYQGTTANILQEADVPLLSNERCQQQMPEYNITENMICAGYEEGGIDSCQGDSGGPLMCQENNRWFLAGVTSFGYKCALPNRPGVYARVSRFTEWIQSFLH

SMILES | inhibition at 0.01 µM [2] | inhibition at 0.1 µM [2] | inhibition at 0.01 µM [3] | inhibition at 0.1 µM [3] | further results
Cl.N=C(N)Nc1ccc(C(=O)Oc2ccc(CNS(=O)(=O)N(CCOCCOCCOCCN([C@@H](CC(=O)O)C(=O)O)S(=O)(=O)NCc3ccc(OC(=O)c4ccc(NC(=N)N)cc4)cc3)[C@@H](CC(=O)O)C(=O)O)cc2)cc1 [3-(c), 2S,16S)-3,15-bis(N-(4-(4-guanidinobenzoyl)oxy)benzyl)sulfamoyl)-6,9,12-trioxa-3,15-diazaheptadecane-1,2,16,17-tetracarboxylic acid hydrochloride] |  |  |  |  | inhibition in vivo at 100 mg/kg (DIO mouse; oral 100 mg/kg once daily for 2 weeks): ≥ 4%
Cl.N=C(N)Nc1ccc(C(=O)Oc2ccc(CNS(=O)(=O)N(CCOCCOCCOCCN([C@@H](CC(=O)O)C(=O)O)S(=O)(=O)NCc3ccc(OC(=O)c4ccc(NC(=N)N)cc4)cc3)[C@@H](CC(=O)O)C(=O)O)cc2)cc1 [3-(c)] |  |  |  |  | AUC ([1]; 10 mg/kg): ≤ 100 ng·h/mL
N=C(N)Nc1ccc(C(=O)Oc2ccc(COC(=O)N(CCCCCCCCCCCCN(C(=O)OCc3ccc(OC(=O)c4ccc(NC(=N)N)cc4)cc3)C(CC(=O)O)C(=O)O)C(CC(=O)O)C(=O)O)cc2)cc1 (centres unmarked) [11-(b), 2,2′-(1,20-bis(4-((4-guanidinobenzoyl)oxy)phenyl 3,18-dioxo-2,19-dioxa-4,17-diazaicosane-4,17-diyl)disuccinic acid trifluoroacetate] | ≥ 50% | ≥ 50% | ≥ 50% | ≥ 50% | AUC ([1]; 9 mg/kg): ≤ 100 ng·h/mL
N=C(N)Nc1ccc2c(c1)CCCOc1c(cccc1C(=O)N(CCOCCOCCN(C(=O)c1cccc3c1OCCCc1cc(NC(=N)N)ccc1C(=O)O3)[C@@H](CC(=O)O)C(=O)O)[C@@H](CC(=O)O)C(=O)O)OC2=O [20-(d), (2S,13S)-3,12-bis(10-guanidino-13-oxo-6,7,8,13-tetrahydrodibenzo[b,f][1,4]dioxecin-4-carbonyl)-6,9-dioxa-3,12-diazatetradecane-1,2,13,14-tetracarboxylic acid] |  |  |  |  | inhibition in vivo at 50 mg/kg (DIO mouse): ≥ 4%
CN(Cc1ccc(OC(=O)c2ccc(NC(=N)N)cc2)cc1)S(=O)(=O)N(CCOCCOCCN([C@@H](CC(=O)O)C(=O)O)S(=O)(=O)N(C)Cc1ccc(OC(=O)c2ccc(NC(=N)N)cc2)cc1)[C@@H](CC(=O)O)C(=O)O [22-(a), (2S,13S)-3,12-bis(N-(4-((4-guanidinobenzoyl)oxy)benzyl)-N-methylsulfamoyl)-6,9-dioxa-3,12-diazatetradecane-1,2,13,14-tetracarboxylic acid trifluoroacetate] | ≥ 50% |  | ≥ 50% | ≥ 50% | inhibition at 0.001 µM [2]: ≥ 50%; inhibition at 0.001 µM [3]: ≥ 50%
N=C(N)Nc1ccc(C(=O)Oc2ccc(CNS(=O)(=O)N(CCOCCOCCN(C(CC(=O)O)CC(=O)O)S(=O)(=O)NCc3ccc(OC(=O)c4ccc(NC(=N)N)cc4)cc3)C(CC(=O)O)CC(=O)O)cc2)cc1 [23-(c), 3,3′-(((ethane-1,2-diylbis(oxy))bis(ethane-2,1-diyl))bis((N-(4-((4-guanidinobenzoyl)oxy)benzyl)sulfamoyl)azanediyl))dipentanedioic acid] | ≥ 50% | ≥ 50% | ≥ 50% | ≥ 50% | inhibition at 0.001 µM [3]: ≥ 50%
N=C(N)Nc1ccc(C(=O)Oc2ccc(CN(CCOCCOCCN(Cc3ccc(OC(=O)c4ccc(NC(=N)N)cc4)cc3)S(=O)(=O)N[C@@H](CC(=O)O)C(=O)O)S(=O)(=O)N[C@@H](CC(=O)O)C(=O)O)cc2)cc1 [24-(a)] | ≥ 50% | ≥ 50% | ≥ 50% | ≥ 50% | inhibition at 0.001 µM [3]: ≥ 50%; inhibition in vivo at 50 mg/kg (DIO mouse): ≥ 4%
N=C(N)Nc1ccc(C(=O)Oc2cccc(CNS(=O)(=O)N(CCOCCOCCN([C@@H](CC(=O)O)C(=O)O)S(=O)(=O)NCc3cccc(OC(=O)c4ccc(NC(=N)N)cc4)c3)[C@@H](CC(=O)O)C(=O)O)c2)cc1 [25-(b), (2S,13S)-3,12-bis(N-(3-((4-guanidinobenzoyl)oxy)benzyl)sulfamoyl)-6,9-dioxa-3,12-diazatetradecane-1,2,13,14-tetracarboxylic acid] | ≥ 50% | ≥ 50% | ≥ 50% | ≥ 50% | inhibition at 0.001 µM [2]: ≥ 50%; inhibition in vivo at 50 mg/kg (DIO mouse): ≥ 4%
N=C(N)Nc1ccc(C(=O)Oc2ccc(COC(=O)N[C@@H](CC(=O)O)C(=O)O)cc2)cc1 [Reference Example 31-(b), (5)-2-((((4-((4-guanidinobenzoyl)oxy)benzyl)oxy)carbonyl)amino)succinic acid trifluoroacetate] |  | ≥ 50% |  | ≥ 50% | 
N=C(N)Nc1ccc(C(=O)Oc2ccc(COC(=O)NC(CC(=O)O)C(=O)N[C@@H](CC(=O)O)C(=O)O)cc2)cc1 (stereo partly drawn) [Reference Example 41-(b), (2S)-2-(3-carboxy-2-((((4-((4-guanidinobenzoyl)oxy)benzyl)oxy)carbonyl)amino)propaneamine)succinic acid trifluoroacetate] |  | ≥ 50% |  | ≥ 50% | 
N=C(N)Nc1ccc(C(=O)Oc2ccc(COC(=O)N(Cc3cccc(C(=O)O)c3)[C@@H](CC(=O)O)C(=O)O)cc2)cc1 [Reference Example 49-(b), (S)-2-(3-carboxybenzyl) (((4-((4-guanidinobenzoyl)oxy)benzyl)oxy)carbonyl)amino)succinic acid trifluoroacetate] |  | ≥ 50% |  | ≥ 50% | 
N=C(N)Nc1ccc(C(=O)Oc2ccc(CNS(=O)(=O)N(Cc3cccc(C(=O)O)c3)[C@@H](CC(=O)O)C(=O)O)cc2)cc1 [Reference Example 52-(b), (S)-2-((3-carboxybenzyl)(N-(4-((4-guanidinobenzoyl)oxy)benzyl)sulfamoyl)amino)succinic acid trifluoroacetate] |  | ≥ 50% |  | ≥ 50% | 
N=C(N)Nc1ccc(C(=O)Oc2ccc(CNS(=O)(=O)N[C@@H](CC(=O)O)C(=O)O)cc2)cc1 [Reference Example 55-(b), (S)-2-((N-(4-((4-guanidinobenzoyl)oxy)benzyl)sulfamoyl)amino)succinic acid] |  | ≥ 50% |  | ≥ 50% | 
N=C(N)Nc1ccc(C(=O)Oc2cccc(CNS(=O)(=O)N[C@@H](CC(=O)O)C(=O)O)c2)cc1 [Reference Example 73-(b), (S)-2-((N-(3-((4-guanidinobenzoyl)oxy)benzyl)sulfamoyl)amino)succinic acid trifluoroacetate] |  | ≥ 50% |  | ≥ 50% | 
N=C(N)Nc1ccc(C(=O)Oc2cccc(C(=O)N[C@@H](CC(=O)O)C(=O)O)c2)cc1 [Reference Example 87-(d), (S)-2-(3-((4-guanidinobenzoyl)oxy)benzamide)succinic acid] |  | ≥ 50% |  | ≥ 50% | 
